Laboratory results reported in patent publication US9771389B2, “Tylosin derivatives and method for preparation thereof” (BAYER ANIMAL HEALTH GMBH, priority 2013, dated 2017).
In brackets after ≈: the same amount, converted by molar mass. Read-outs that look alike come from different tables or passages of the source.

Tests used:
[1] = test system: Bacillus subtilis ATCC6633; assay: Paper disc assay, Bacillus subtilis; assay type: cell-based; settings: S
Protocol: (§1) (2) Antibacterial activities against other bacteria were determined with Micrococcus luteus ATCC9341 (1), Bacillus subtilis […] (s), Escherichia coli NIHJ (c), Xanthomonas campestris KB88 (X), Mucor racemosus IFO 4581 (Mu) and Candida albicans ATCC 64548 (Ca).
(§2) Bacillus subtilis ATCC6633 was incubated in Davis synthetic medium and then the seed broth was combined with the medium in the ratio of 1:99 to obtain a test plate. Micrococcus luteus ATCC9341, Escherichia coli NIHJ and Xanthomonas campestris KB88 were respectively incubated in Nutrient agar medium and inoculated at 0.2%, 0.5% and 1.0%. Mucor racemosus IFO 4581 and Candida albicans ATCC 64548 were respectively incubated in GY agar medium and then inoculated at 0.3% and 0.2%.
(§3) A paper disc (ADVANTEC, Φ:6 mm) was impregnated with a solution of test compound and dried under reduced pressure. The paper disc was put on the test plate and it was incubated for 24 hours at 37° C. After incubation, the inhibition zone diameter and clarity (A to E) were determined.

[2] = test system: Micrococcus luteus ATCC9341; assay: Paper disc assay, Micrococcus luteus; assay type: cell-based; settings: column 1
Protocol: as §1, §2, §3

[3] = test system: Xanthomonas campestris KB88; assay: Paper disc assay, Xanthomonas campestris; assay type: cell-based; settings: X
Protocol: as §1, §2, §3

[4] = test system: M. hemolytica KB345 (Tilmicosin-sensitivity strain); assay: Paper disc assay, M. hemolytica KB345; assay type: cell-based, Mannhemia hemolytica; settings: Table 4
Protocol: (1) Antibacterial activities against Mannheimia and Pasteurella were determined by the following steps: • 1) M. hemolytica KB345 (Tilmicosin-sensitivity strain) and M. hemolytica KB346 (Tilmicosin-low sensitivity strain) were provided. KB 345 strain stored at −80° C. was seeded to BHIB agar medium (10 mL) by using Microbank beads (Pro-Lab) and platinum nail. After statically incubating the KB 345 strain for 24 hours at 37° C., it was seeded to maintaining slant BHIB agar medium (7 mL) by using platinum loop, further statically incubated for 24 hours at 37° C. to obtain slant. One platinum loop of KB 345 strain stored at the slant was inoculated into a large test tube charged with BHIB liquid medium (10 mL) and then incubated for 24 hours at 37° C. with shaking. • 2) A paper disc (ADVANTEC, Φ:6 mm) was impregnated with a solution of test compound and dried under reduced pressure. • 3) To a melted BHIB agar medium was inoculated 1% of the broth obtained from step 1) above to prepare a test plate. After the medium set, the paper disc prepared in step 2) above was put on the plate and it was incubated at 37° C. • 4) After one day, the inhibition zone diameter and clarity (A to E) were determined. For KB346 strain, the same procedures were repeated.

[5] = test system: Actinobacillus pleuropneumoniae, 6 isolates; assay: MIC against Actinobacillus pleuropneumoniae isolates; assay type: cell-based
Protocol: (§4) Minimal inhibitory concentrations (MICs) were determined against the most prevalent pathogens in cattle (Mannheimia Haemolytica, 3 isolates) and swine (A. pleuropneumoniae, 6 isolates). In addition the activity of several compounds was tested against two bacterial species, i.e. Mannheimia haemolytica and Actinobacillus pleuropneumoniae, which are considered as the most important bacterial respiratory pathogens in cattle and swine, respectively.

[6] = test system: Mannheimia haemolytica, 3 isolates; assay: MIC against Mannheimia haemolytica isolates; assay type: cell-based; settings: Mannheimia haemolytica
Protocol: as §4

[7] = 6ISOLATES, 6 Actinobacillus pleuropneumoniae isolates, broth dilution method, read-out: Range of minimum inhibitory concentrations (MIC)
[8] = 3ISOLATES, 3 Mannheimia haemolytica isolates, broth dilution method, read-out: Range of minimum inhibitory concentrations (MIC)

CC[C@H]1OC(=O)C[C@@H](O)[C@H](C)[C@@H](O[C@@H]2OC(C)[C@@H](O)C(N(C)C)C2O)[C@@H](CCn2cc(-c3ccccn3)nn2)C[C@@H](C)C(=O)/C=C/C(C)=C/[C@@H]1CO[C@@H]1OC(C)[C@@H](O)C(OC)C1OC (stereo partly shown) [YT12, 20-(4-(pyridine-2-yl)-1H-1,2,3-triazol-1-yl)-20-deoxodesmycosin]
Inhibition zone ([1]; 0.1 mg/6 mm disc): 7 mm
Inhibition zone ([1]; 1 mg/6 mm disc): 12.5 mm
Inhibition zone ([1]; 10 mg/6 mm disc): 14 mm
Inhibition zone ([2]; 0.1 mg/6 mm disc): 12 mm
Inhibition zone ([2]; 1 mg/6 mm disc): 18.5 mm
Inhibition zone ([2]; 10 mg/6 mm disc): 25 mm
Inhibition zone ([3]; 0.1 mg/6 mm disc): 7 mm
Inhibition zone ([3]; 10 mg/6 mm disc): 27 mm

CCC1OC(=O)CC(O)C(C)C(OC2OC(C)C(O)C(N(C)C)C2O)C(CCn2cc(-c3ccccc3)nn2)CC(C)C(=O)C=CC(C)=CC1CN=[N+]=[N-] (stereo not shown) [YT114, 20-(4-phenyl-1H-1,2,3-triazol-1-yl)-20-deoxo-23-azido-23-deoxy-5-O-mycaminosyltylonolide]
Inhibition zone ([4]; 3 mg/6 mm disk): 11.5 mm
Inhibition zone ([4]; 10 mg/6 mm disk): 17.5 mm
Inhibition zone ([4]; 30 mg/6 mm disk): 21.0 mm
Inhibition zone ([4]; 100 mg/6 mm disk): 21.0 mm

CC[C@H]1OC(=O)C[C@@H](O)[C@H](C)[C@@H](O[C@@H]2OC(C)[C@@H](O)C(N(C)C)C2O)[C@@H](CCn2cc(-c3cnc4ccccc4c3)nn2)C[C@@H](C)C(=O)/C=C/C(C)=C/[C@@H]1CO (stereo partly shown) [YT733]
MIC [5, 7]: 4 µg/mL (≈ 5.14 µM)
MIC [6, 8]: 2 to 4 µg/mL (≈ 2.57 to 5.14 µM)

CC[C@H]1OC(=O)C[C@@H](O)[C@H](C)[C@@H](O[C@@H]2OC(C)[C@@H](O)C(N(C)C)C2O)[C@@H](CCNCCn2cc(-c3ccsc3)nn2)C[C@@H](C)C(=O)/C=C/C(C)=C/[C@@H]1CO (stereo partly shown) [YT717]
MIC [5, 7]: 4 µg/mL (≈ 5.15 µM)
MIC [6, 8]: 2 to 8 µg/mL (≈ 2.58 to 10.3 µM)

CC[C@H]1OC(=O)C[C@@H](O)[C@H](C)[C@@H](O[C@@H]2OC(C)[C@@H](O)C(N(C)C)C2O)[C@@H](CCn2cc(-c3ccc(N(C)C)cc3)nn2)C[C@@H](C)C(=O)/C=C/C(C)=C/[C@@H]1CO[C@@H]1OC(C)[C@@H](O)C(OC)C1OC (stereo partly shown) [YT29, 20-(4-(4-dimethylaminophenyl)-1H-1,2,3-triazol-1-yl)-20-deoxodesmycosin]
Inhibition zone ([1]; 0.1 mg/6 mm disc): 7 mm
Inhibition zone ([1]; 1 mg/6 mm disc): 10 mm
Inhibition zone ([1]; 10 mg/6 mm disc): 15 mm
Inhibition zone ([2]; 0.1 mg/6 mm disc): 11 mm
Inhibition zone ([2]; 1 mg/6 mm disc): 19.5 mm
Inhibition zone ([2]; 10 mg/6 mm disc): 25.5 mm
Inhibition zone ([3]; 0.1 mg/6 mm disc): 7 mm
Inhibition zone ([3]; 1 mg/6 mm disc): 15 mm
Inhibition zone ([3]; 10 mg/6 mm disc): 24 mm

CC[C@H]1OC(=O)C[C@@H](O)[C@H](C)[C@@H](O[C@@H]2OC(C)[C@@H](O)C(N(C)C)C2O)[C@@H](CCn2cc(-c3ccsc3)nn2)C[C@@H](C)C(=O)/C=C/C(C)=C/[C@@H]1CO (stereo partly shown) [YT726]
MIC [5, 7]: 8 µg/mL (≈ 10.9 µM)
MIC [6, 8]: 8 µg/mL (≈ 10.9 µM)

CC[C@H]1OC(=O)C[C@@H](O)[C@H](C)[C@@H](O[C@@H]2OC(C)[C@@H](O)C(N(C)C)C2O)[C@@H](CCn2cc(-c3ccc4ccccc4n3)nn2)C[C@@H](C)C(=O)/C=C/C(C)=C/[C@@H]1CO (stereo partly shown) [YT734]
MIC [5, 7]: 2 to 4 µg/mL (≈ 2.57 to 5.14 µM)
MIC [6, 8]: 2 to 4 µg/mL (≈ 2.57 to 5.14 µM)

CC[C@H]1OC(=O)C[C@@H](O)[C@H](C)[C@@H](O[C@@H]2OC(C)[C@@H](O)C(N(C)C)C2O)[C@@H](CCN(C)Cc2cn(-c3ccc4ncccc4c3)nn2)C[C@@H](C)C(=O)/C=C/C(C)=C/[C@@H]1CO (stereo partly shown) [YT710]
MIC [5, 7]: 4 µg/mL (≈ 4.87 µM)
MIC [6, 8]: 2 to 4 µg/mL (≈ 2.44 to 4.87 µM)

CC[C@H]1OC(=O)C[C@@H](O)[C@H](C)[C@@H](O[C@@H]2OC(C)[C@@H](O)C(N(C)C)C2O)[C@@H](CCN(CCn2cc(-c3ccsc3)nn2)Cc2ccccc2)C[C@@H](C)C(=O)/C=C/C(C)=C/[C@@H]1CO (stereo partly shown) [YT674]
MIC [5, 7]: 2 µg/mL (≈ 2.31 µM)
MIC [6, 8]: 2 to 4 µg/mL (≈ 2.31 to 4.62 µM)

CC[C@H]1OC(=O)C[C@@H](O)[C@H](C)[C@@H](O[C@@H]2OC(C)[C@@H](O)C(N(C)C)C2O)[C@@H](CCN(C)Cc2cn(CCNCc3ccccc3)nn2)C[C@@H](C)C(=O)/C=C/C(C)=C/[C@@H]1CO (stereo partly shown) [YT653]
MIC [5, 7]: 4 to 8 µg/mL (≈ 4.84 to 9.67 µM)
MIC [6, 8]: 1 to 8 µg/mL (≈ 1.21 to 9.67 µM)

CC[C@H]1OC(=O)C[C@@H](O)[C@H](C)[C@@H](O[C@@H]2OC(C)[C@@H](O)C(N(C)C)C2O)[C@@H](CCNCCn2cc(-c3ccccc3[N+](=O)[O-])nn2)C[C@@H](C)C(=O)/C=C/C(C)=C/[C@@H]1CO (stereo partly shown) [YT718]
MIC [5, 7]: 8 µg/mL (≈ 9.82 µM)
MIC [6, 8]: 2 to 8 µg/mL (≈ 2.45 to 9.82 µM)

CCC1OC(=O)CC(O)C(C)C(OC2OC(C)C(O)C(N(C)C)C2O)C(CCn2cc(-c3ccccc3)nn2)CC(C)C(=O)C=CC(C)=CC1CI (stereo not shown) [YT113]
Inhibition zone ([4]; 10 mg/6 mm disk): 11.0 mm
Inhibition zone ([4]; 30 mg/6 mm disk): 18.0 mm
Inhibition zone ([4]; 100 mg/6 mm disk): 19.5 mm

CC[C@H]1OC(=O)C[C@@H](O)[C@H](C)[C@@H](O[C@@H]2OC(C)[C@@H](O)C(N(C)C)C2O)[C@@H](CCN(CCn2cc(-c3ccsc3)nn2)Cc2ccc(I)cc2)C[C@@H](C)C(=O)/C=C/C(C)=C/[C@@H]1CO (stereo partly shown) [YT705]
MIC [5, 7]: 8 µg/mL (≈ 8.06 µM)
MIC [6, 8]: 8 µg/mL (≈ 8.06 µM)

CC[C@H]1OC(=O)C[C@@H](O)[C@H](C)[C@@H](O[C@@H]2OC(C)[C@@H](O)C(N(C)C)C2O)[C@@H](CCN(CCn2cc(-c3cccnc3)nn2)Cc2ccccc2)C[C@@H](C)C(=O)/C=C/C(C)=C/[C@@H]1CO (stereo partly shown) [YT664]
MIC [5, 7]: 2 to 8 µg/mL (≈ 2.32 to 9.29 µM)
MIC [6, 8]: 4 to 8 µg/mL (≈ 4.65 to 9.29 µM)

CC[C@H]1OC(=O)C[C@@H](O)[C@H](C)[C@@H](O[C@@H]2OC(C)[C@@H](O)C(N(C)C)C2O)[C@@H](CCN(CCn2cc(-c3ccccc3)nn2)Cc2ccc(I)cc2)C[C@@H](C)C(=O)/C=C/C(C)=C/[C@@H]1CO (stereo partly shown) [YT700]
MIC [5, 7]: 8 µg/mL (≈ 8.11 µM)
MIC [6, 8]: 4 to 8 µg/mL (≈ 4.06 to 8.11 µM)

CC[C@H]1OC(=O)C[C@@H](O)[C@H](C)[C@@H](O[C@@H]2OC(C)[C@@H](O)C(N(C)C)C2O)[C@@H](CCNCCn2cc(-c3ccccc3)nn2)C[C@@H](C)C(=O)/C=C/C(C)=C/[C@@H]1CO (stereo partly shown) [YT617]
MIC [5, 7]: 4 µg/mL (≈ 5.19 µM)
MIC [6, 8]: 2 to 8 µg/mL (≈ 2.6 to 10.4 µM)

CC[C@H]1OC(=O)C[C@@H](O)[C@H](C)[C@@H](O[C@@H]2OC(C)[C@@H](O)C(N(C)C)C2O)[C@@H](CCNCCn2cc(-c3cc(C)c(C)cc3C)nn2)C[C@@H](C)C(=O)/C=C/C(C)=C/[C@@H]1CO (stereo partly shown) [YT723]
MIC [5, 7]: 8 µg/mL (≈ 9.85 µM)
MIC [6, 8]: 2 to 8 µg/mL (≈ 2.46 to 9.85 µM)

CC[C@H]1OC(=O)C[C@@H](O)[C@H](C)[C@@H](O[C@@H]2OC(C)[C@@H](O)C(N(C)C)C2O)[C@@H](CC=O)C[C@@H](C)C(=O)/C=C/C(C)=C/[C@@H]1Cn1cc(-c2ccc(-c3ccccc3)cc2)nn1 (stereo partly shown) [YT104, 23-(4-biphenyl-1H-1,2,3-triazol-1-yl)-23-Deoxy-5-O-mycaminosyltylonolide]
MIC ([5]; Actinobacillus pleuropneumoniae, pleuropneumoniae isolate 1, read-out: MICs): > 16 µg/mL
MICs ([5]; pleuropneumoniae isolate 2): >16 µg/mL
MICs ([5]; pleuropneumoniae isolate 3): >16 µg/mL
MICs ([5]; pleuropneumoniae isolate 4): >16 µg/mL
MICs ([5]; pleuropneumoniae isolate 5): >16 µg/mL
MICs ([5]; pleuropneumoniae isolate 6): >16 µg/mL
MIC ([6]; M. haemolytica isolate 1, read-out: MICs): 8 µg/mL (≈ 9.99 µM)
MIC ([6]; M. haemolytica isolate 2, read-out: MICs): 4 µg/mL (≈ 4.99 µM)
MIC ([6]; M. haemolytica isolate 3, read-out: MICs): 8 µg/mL (≈ 9.99 µM)

CC[C@H]1OC(=O)C[C@@H](O)[C@H](C)[C@@H](O[C@@H]2OC(C)[C@@H](O)C(N(C)C)C2O)[C@@H](CCN(CCn2cc(-c3cccc(N)c3)nn2)Cc2ccccc2)C[C@@H](C)C(=O)/C=C/C(C)=C/[C@@H]1CO (stereo partly shown) [YT657]
MIC [5, 7]: 2 µg/mL (≈ 2.29 µM)
MIC [6, 8]: 2 to 4 µg/mL (≈ 2.29 to 4.57 µM)
